Measured values: US20260083698A1, “Synergistic Stimulation of Mucociliary Clearance to Treat Mucus Obstruction in Cystic Fibrosis and Other Muco-Obstructive Disorders” (The Board of Trustees of the Leland Stanford Junior …, priority 2022, published 2026)

Assays:
[1] = tested on: WT ferret tracheal glands; experiment: Optical measurement of glandular mucus secretion rate, WT ferret
From the text: (§1) Synergistic glandular mucus secretion in WT pigs, WT ferrets, and CF ferrets. Synergistic increases in MCCV rely partly on increased mucus secretion from submucosal glands. This hypothesis arises from evidence that combinations of [Ca^2+]i-elevating and [cAMP]i-elevating agonists produce synergistically elevated rates of mucus from submucosal glands of humans (22), pigs (24), and ferrets (21). However, in those experiments different specific concentrations of agonists were used. To determine if the same protocols used here produced synergistic increases in secretion from submucosal glands, mucus secretion rates of individual tracheal glands in WT pigs and ferrets and in CF ferrets were measured via time-lapse optical imaging (28) while stimulating them with the same concentrations of agonists and durations of exposure used for MCCV studies. All secretion rates are reported as nanoliters/min/gland. WT Ferrets gave similar results (FIG. 3D-F). […] Data for individual WT control ferrets is shown in FIG. 3E for forskolin first and in FIG. 3F for carbachol first. Optical measurement of glandular mucus secretion rate. Details are in the previous report (28). […] Stored images were analyzed by direct measurement or with ImageJ software (V. 1.50i, https://imagej.nih.gov/ij/, NIH, MD/USA).

CF ferret tracheas = experiment: Mucociliary clearance velocity (MCCV) in ex vivo CF ferret tracheas; conditions: for MCCV: 10 μM forskolin, 0.3 μM carbachol, average of last 20 min of single drug period, 10 to 80 min after adding the combined agonists; for CF ferret MCCV response compared to WT ferrets: CF vs WT ferret (WT from ref 16)
Description: Synergistic increases of MCCV in CF ferrets and WT pigs. […] To determine if synergistic increases of MCCV could be produced in CF ferret tracheas, tracheas from 7 transgenic adult CF ferrets of mixed genotype were tested (see “Methods” section). […] SR, synergy response by the combined agonists: 19.95±4.12, (P=0.006 SR vs. Sum). Airway tissue procurement. CF ferret tissues. […] These ferrets were raised on the CFTR modulator VX770. […] Two […]/KO ferret tracheas were used for the tracheal, single gland mucus secretion rate assay. […] All isolated CF ferret tracheal trims (2-3 cm in length) were placed in DMEM culture medium immediately after euthanasia and shipped from the University of Iowa via overnight priority express. MCCV measurement. Details are in the previous reports (16,59,60). Briefly, each whole length ferret or piglet trachea, or a CF tracheal trim, was cut open along the mid-dorsal line and mounted mucosal side up onto a Sylgard elastomer platform. For pig experiments, tracheas from newborn piglets were used because tracheas from adult pigs that had been subjected to acute experiments, our source for submucosal gland experiment, had erratic MCC velocities due to epithelial damage secondary to intubation. […] Drugs were added by bath replacement with pre-warmed bath+drug(s).

[2] = tested on: CF ferret (CFTRKO/KO) tracheal glands; experiment: Optical measurement of glandular mucus secretion rate, CF ferret; conditions: 10 mM forskolin, 0.3 mM carbachol, one ferret per order of addition
From the text: as §1, with “nanoliters/min/gland. […] Only two CF ferrets were able to be tested (FIG. 3G-I). […] Unstimulated secretion rates were zero, as in” for “nanoliters/min/gland.”, “ferrets.” for “Ferrets gave similar results (FIG. 3D-F).”, “The averaged secretion rate across both ferrets to the combined agonists was 1.27±0.15,which is 2.8 times the arithmetic sum of the two agonists used alone, and about half of the response of” for “Data for individual”, “WT” for “WT control”, “ferrets” for “ferrets is shown in FIG. 3E for forskolin first and in FIG. 3F for carbachol first. Optical measurement”, “2.46±0.39 (16). Airway tissue procurement.” for “glandular mucus secretion rate. Details are in the previous report (28).”

C=C[C@@]1(C)CC(=O)[C@]2(O)[C@@]3(C)[C@@H](O)CCC(C)(C)[C@@H]3[C@H](O)[C@H](OC(C)=O)[C@@]2(C)O1 [forskolin]
gland mucus secretion rate [1]: 0.26±0.07 nanoliters/min/gland | MCCV (CF ferret tracheas; CF ferret tracheas): 0.18±0.09 mm/min | CF ferret MCCV response compared to WT ferrets (CF ferret tracheas): ~0% | average gland mucus secretion rate, single ferret [2]: 0.01 nanoliters/min/gland

C[N+](C)(C)CCOC(N)=O [carbachol]
gland mucus secretion rate [1]: 0.94±0.28 nanoliters/min/gland | MCCV (CF ferret tracheas; CF ferret tracheas): 3.29±2.08 mm/min | effect on MCCV (CF ferret tracheas; CF ferret tracheas, single agonist, 30 min): only a small increase | CF ferret MCCV response compared to WT ferrets (CF ferret tracheas): ~40% | averaged MCCV of T10-30 to 0.3 μM carbachol in ferret (E) relative to ferrets (A) and (C) (CF ferret tracheas; individual CF ferrets, FIG. 7): less than 5% | average gland mucus secretion rate, single ferret [2]: 0.45±0.16 nanoliters/min/gland
